Measured values taken from patent EP0386243A1, “PLATINUM (II) COMPLEXES” (SAGAMI CHEMICAL RESEARCH CENTER, priority 1987, dated 1989).
Read-outs that look alike come from different tables or passages of the source.

Assays:
[1] = tested on: Mouse lymphatic leukemia tumor cells, P-388; test: Growth suppressing effect on mouse lymphatic leukemia tumor cells P-388 (48 h culture, Coulter counter cell count); type: cell-based; settings: P-388 cells 5 x 10^4 cells/ml, 37°C, no more than 0.5% DMSO
Experimental: The number of suspended cells was counted with a Coulter counter and ICso values were determined from dose response curves that were constructed for the respective compounds on the basis of percent growth inhibition as compared to the absence of the compounds.

[2] = Toxicity: S-GPT (serum transaminase) and BUN (blood urea nitrogen) levels; type: in vivo

CC(C(=O)C(=O)[O-])c1ccc(C(=O)[O-])cc1.CC(C(=O)C(=O)[O-])c1ccc(C(=O)[O-])cc1.C[NH2+]C.C[NH2+]C.NC1CCCCC1N.[Pt+2] (stereo not drawn) [Compound No. 33, bis{β-methyl(p-carboxyphenylpyruvato)}(trans-d,ℓ-1,2-diaminocyclohexane)platinum (II) bis(dimethylammonium) salt]
IC50 [1]: 0.024 µg/mL | IC50 ([1]; read-out: IC50): 28 nM

bis(β-methylphenylpyruvato)ethylenediamine platinum (II) [Compound No. 17]
IC50 ([1]; read-out: IC50): > 10000 nM

bis{β-methyl(p-isobutylphenylpyruvato)}(trans-Q-1,2-diaminocyclohexane)platinum (II) [Compound No. 14]
S-GPT (serum transaminase) ([2]; indicator of hepatotoxicity): did not cause any appreciable increase | BUN (blood urea nitrogen) ([2]; indicator of nephrotoxicity): did not cause any appreciable increase
